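How tested: cells in 96-well plates exposed to compound for 48 hours at five concentrations. TGI marks complete inhibition of growth.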
How the values were obtained:
Test in all cases: NCI anticancer screen, dose series, 48 h
[1] = system: MCF7 breast
[2] = system: IGROV1 ovarian
[3] = system: OVCAR-5 ovarian
[4] = system: PC-3 prostate
[5] = system: COLO 205 colon
[6] = system: SF-539 CNS
[7] = system: OVCAR-3 ovarian
[8] = system: MDA-MB-231 breast
[9] = system: RPMI-8226 leukemia
[10] = system: SNB-19 CNS
[11] = system: TK-10 renal
[12] = system: HCT-15 colon
[13] = system: SN12C renal
[14] = system: HCT-116 colon
[15] = system: NCI/ADR-RES ovarian
[16] = system: SNB-75 CNS
[17] = system: SR leukemia
[18] = system: K-562 leukemia
[19] = system: HS 578T breast

SMILES | TGI [1] [µM] | TGI [2] [µM] | TGI [3] [µM] | TGI [4] [µM] | TGI [5] [µM] | TGI [6] [µM] | TGI [7] [µM] | TGI [8] [µM] | TGI [9] [µM] | TGI [10] [µM] | TGI [11] [µM] | TGI [12] [µM] | TGI [13] [µM] | TGI [14] [µM] | TGI [15] [µM] | TGI [16] [µM] | TGI [17] [µM] | TGI [18] [µM] | TGI [19] [µM]
CC1(C)O[C@@H]([C@H](O)CO)[C@H](O)[C@@H](C2SCCCS2)O1 | > 100 | > 100 | > 100 | > 100 | > 100 | > 100 | > 100 | > 100 | > 100 | > 100 | > 100 | > 100 | > 100 | > 100 | > 100 | > 100 | > 100 |  | 
CCOC(=O)c1c(N)n(-c2ccccc2)c(=O)n(-c2ccccc2)c1=O | > 100 | > 100 | > 100 |  | > 100 |  | > 100 | > 100 | > 100 | > 100 | > 100 | > 100 | > 100 |  |  | > 100 | > 100 | > 100 | > 100
c1ccc([P+](CCSCCSCC[P+](c2ccccc2)(c2ccccc2)c2ccccc2)(c2ccccc2)c2ccccc2)cc1 | > 100 | > 100 | > 100 |  | > 100 | > 100 | > 100 | > 100 |  | > 100 | > 100 | > 100 | > 100 | > 100 | > 100 | > 100 |  | > 100 | > 100
CC[C@H](C)[C@H]1NC(=O)[C@@H](NC(=O)[C@@H](CC(C)C)N(C)C(=O)C2CCCN2C(=O)[C@H](C)O)[C@@H](C)OC(=O)[C@H](Cc2ccc(OC)cc2)N(C)C(=O)[C@@H]2CCCN2C(=O)[C@H](CCCCNC(=O)OCc2ccccc2)NC(=O)[C@H](C)C(=O)[C@H](C(C)C)OC(=O)C[C@@H]1O (stereo partly specified) | > 25 | > 25 | > 25 | 16.5 | 18.9 | > 25 | 24.8 |  | 19.7 | > 25 | > 25 | > 25 | > 25 | 20.2 | > 25 |  | > 25 | > 25 | 8.35
COc1ccc(N=NC(=O)NC(Cc2ccccc2)C(=O)O)cc1 (stereo unspecified) | > 100 | > 100 | > 100 | > 100 | > 100 | > 100 | > 100 |  | > 100 | > 100 | > 100 | > 100 | > 100 | > 100 | > 100 | > 100 | > 100 | > 100 | > 100
S=c1[nH]nc(CNc2ccc(-c3n[nH]c(=S)n3-c3ccc(Cl)cc3)cc2)n1-c1ccc(Cl)cc1 | > 100 | 47.1 | 46.4 | > 100 | 38.9 |  |  | > 100 | 78 | > 100 | > 100 | > 100 | 82.8 | 32.8 | > 100 | > 100 |  | > 100 | 
CNNC1=NS(=O)(=O)c2cc(C#N)c(Cl)cc2S1 |  | > 10 | > 10 | > 10 | > 10 | > 10 | > 10 | > 10 | > 10 | > 10 | > 10 | > 10 | > 10 | > 10 | > 10 | > 10 |  | > 10 | > 10
COC(=O)C(NC(=O)C(CC(=O)OC(C)(C)C)NC(=O)OC(C)(C)C)C(O)c1ccccc1 (stereo unspecified) | > 100 | > 100 | > 100 | > 100 | > 100 | > 100 | > 100 | > 100 | > 100 | > 100 | > 100 | > 100 | > 100 | > 100 | > 100 | > 100 |  | > 100 | > 100
CC(C)(O)/C=C\P(=O)(O)O | > 100 | > 100 | > 100 | > 100 | > 100 | > 100 | > 100 |  |  | > 100 | > 100 | > 100 | > 100 | > 100 | > 100 | > 100 | > 100 | > 100 | > 100
N#CC(C(=O)c1cccnc1Cl)c1nc2cc(C(F)(F)F)ccc2s1 (stereo unspecified) |  | > 100 | > 100 |  | > 100 | > 100 | > 100 | > 100 | > 100 | > 100 | > 100 | > 100 | > 100 | 90.3 | > 100 | > 100 |  | > 100 | 
O=C(CC(=O)N1N=C(N2CCCCC2)CC1c1ccccc1)Nc1ccccc1 (stereo unspecified) | > 100 | > 100 | > 100 | > 100 | > 100 | > 100 | > 100 | > 100 |  | > 100 | > 100 | > 100 | > 100 | > 100 | > 100 | > 100 | > 100 |  | > 100
O=C1NC(N2CCOCC2)=N/C1=C\c1ccc(Cl)cc1 | > 100 | > 100 | > 100 | > 100 | > 100 | > 100 | > 100 | > 100 | > 100 | > 100 | > 100 | > 100 | > 100 | > 100 | > 100 | > 100 | > 100 |  | > 100
CCOC(=O)c1c[nH]c2c(Sc3ccccc3)nccc2c1=O | > 100 | > 100 | > 100 | > 100 | > 100 | > 100 | > 100 | > 100 |  | > 100 | > 100 | > 100 | > 100 | > 100 | > 100 | > 100 |  |  | > 100
